From ChEMBL document CHEMBL1153024, “Antibacterial diterpenes from Plectranthus ernstii” (2009)
Values after ≈ are worked out from the molar mass of the structure shown. Active and inactive are the calls of the source. No cut-off for these calls is given here.

Tests used:
Staphylococcus aureus [1] = assay: Antibacterial activity against Staphylococcus aureus 1199B overexpressing NorA at 128 ug/ml after 24 hrs; format: functional, organism-based
[2] = system: Mycolicibacterium fortuitum; assay: Antibacterial activity against Mycobacterium fortuitum after 72 hrs; format: functional
Staphylococcus aureus [3] = assay: Antibacterial activity against Staphylococcus aureus RN4220 overexpressing MsrA at 128 ug/ml after 24 hrs; format: functional, organism-based
[4] = system: Mycolicibacterium smegmatis; assay: Antibacterial activity against Mycobacterium smegmatis after 72 hrs; format: functional
Staphylococcus aureus [5] = assay: Antibacterial activity against Staphylococcus aureus XU-212 overexpressing TetK, mecA at 128 ug/ml after 24 hrs; format: functional, organism-based
Mycolicibacterium phlei = assay: Antibacterial activity against Mycobacterium phlei after 72 hrs; format: functional
Staphylococcus aureus [6] = assay: Antibacterial activity against Staphylococcus aureus EMRSA-15 at 128 ug/ml after 24 hrs; format: functional, organism-based
Staphylococcus aureus [7] = assay: Antibacterial activity against Staphylococcus aureus ATCC 25923 at 128 ug/ml after 24 hrs; format: functional, organism-based
Staphylococcus aureus [8] = assay: Antibacterial activity against Staphylococcus aureus 1199B overexpressing NorA after 24 hrs; format: functional
Staphylococcus aureus [9] = assay: Antibacterial activity against Staphylococcus aureus EMRSA-15 after 24 hrs; format: functional; details: EMRSA-15, 24 h
Staphylococcus aureus [10] = assay: Antibacterial activity against Staphylococcus aureus XU-212 overexpressing TetK, mecA after 24 hrs; format: functional; details: XU-212, 24 h
Staphylococcus aureus [11] = assay: Antibacterial activity against Staphylococcus aureus ATCC 25923 after 24 hrs; format: functional; details: ATCC 25923, 24 h
Staphylococcus aureus [12] = assay: Antibacterial activity against Staphylococcus aureus RN4220 overexpressing MsrA after 24 hrs; format: functional; details: RN4220, 24 h

SMILES	MIC (Staphylococcus aureus [1])	MIC [2] [µg/mL]	MIC (Staphylococcus aureus [3])	MIC [4] [µg/mL]	MIC (Staphylococcus aureus [5])	MIC (Mycolicibacterium phlei) [µg/mL]	MIC (Staphylococcus aureus [6])	MIC (Staphylococcus aureus [7])	MIC (Staphylococcus aureus [8]) [µg/mL]	MIC (Staphylococcus aureus [9]) [µg/mL]	MIC (Staphylococcus aureus [10]) [µg/mL]	MIC (Staphylococcus aureus [11]) [µg/mL]	MIC (Staphylococcus aureus [12]) [µg/mL]
C=C[C@@]1(C)C[C@H](O)[C@@H]2[C@@]3(C)[C@H](O)CCC(C)(C)[C@@H]3CC[C@@]2(C)O1	inactive	128 (≈ 397 µM)	inactive	128 (≈ 397 µM)	inactive	128 (≈ 397 µM)	inactive	inactive	–	–	–	–	–
CC1(C)CCC[C@]2(C)[C@H]3CC[C@](C)(C4CO4)C=C3C(=O)C[C@@H]12 (relative stereo)	inactive	128 (≈ 423 µM)	inactive	128 (≈ 423 µM)	inactive	64 (≈ 212 µM)	inactive	inactive	–	–	–	–	–
CC1(C)CCC[C@]2(C)[C@H]3CC[C@](C)(C4CO4)C=C3[C@H](O)C[C@@H]12 (relative stereo)	–	16 (≈ 52.5 µM)	–	16 (≈ 52.5 µM)	–	8 (≈ 26.3 µM)	–	–	32 (≈ 105 µM)	32 (≈ 105 µM)	32 (≈ 105 µM)	32 (≈ 105 µM)	32 (≈ 105 µM)
CC[C@H]1OC(=O)[C@H](C)[C@@H](O[C@H]2C[C@@](C)(OC)[C@@H](O)[C@H](C)O2)[C@H](C)[C@@H](O[C@@H]2O[C@H](C)C[C@H](N(C)C)[C@H]2O)[C@](C)(O)C[C@@H](C)C(=O)[C@H](C)[C@@H](O)[C@]1(C)O [ERYTHROMYCIN]	–	–	–	–	–	–	–	–	–	–	–	–	128 (≈ 174 µM)
CC[C@@H](CO)NCCN[C@@H](CC)CO [ETHAMBUTOL]	–	4 (≈ 19.6 µM)	–	0.5 (≈ 2.45 µM)	–	2 (≈ 9.79 µM)	–	–	–	–	–	–	–
CCn1cc(C(=O)O)c(=O)c2cc(F)c(N3CCNCC3)cc21 [NORFLOXACIN]	–	–	–	–	–	–	–	–	32 (≈ 100 µM)	2 (≈ 6.26 µM)	–	0.5 (≈ 1.57 µM)	–
CN(C)[C@@H]1C(O)=C(C(N)=O)C(=O)[C@@]2(O)C(O)=C3C(=O)c4c(O)cccc4[C@@](C)(O)[C@H]3C[C@@H]12 [TETRACYCLINE]	–	–	–	–	–	–	–	–	–	–	128 (≈ 288 µM)	–	–
